# Test results reported in patent US6355633B1, “Aryl sulfonic acids and derivatives as FSH antagonists” (American Home Products Corporation, priority 1999, dated 2002).
# Molecular target: T1, FSH receptor (Homo sapiens, UniProt P23945)
# T1 sequence (P23945 18-695): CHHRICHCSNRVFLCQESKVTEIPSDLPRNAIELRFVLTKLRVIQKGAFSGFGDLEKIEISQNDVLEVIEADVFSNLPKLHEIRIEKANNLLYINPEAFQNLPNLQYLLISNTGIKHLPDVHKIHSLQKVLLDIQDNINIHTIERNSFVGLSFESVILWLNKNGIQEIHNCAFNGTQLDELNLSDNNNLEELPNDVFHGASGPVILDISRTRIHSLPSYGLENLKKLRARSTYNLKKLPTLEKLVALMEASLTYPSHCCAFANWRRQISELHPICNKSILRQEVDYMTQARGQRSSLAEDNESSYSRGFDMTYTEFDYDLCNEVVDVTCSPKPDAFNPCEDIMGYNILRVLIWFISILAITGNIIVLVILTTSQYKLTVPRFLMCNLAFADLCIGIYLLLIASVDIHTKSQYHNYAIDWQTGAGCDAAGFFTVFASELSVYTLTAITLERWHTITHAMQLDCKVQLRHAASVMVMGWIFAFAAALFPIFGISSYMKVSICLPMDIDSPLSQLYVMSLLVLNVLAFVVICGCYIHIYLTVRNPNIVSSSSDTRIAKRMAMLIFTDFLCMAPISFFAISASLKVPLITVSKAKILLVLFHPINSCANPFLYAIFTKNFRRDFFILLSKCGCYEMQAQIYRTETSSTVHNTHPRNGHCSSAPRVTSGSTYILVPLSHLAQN
# Test: FSH Receptor Radioligand Membrane Binding Standard Pharmacological Test Procedure
# Parameters: expressed in transfected cells
# Conditions: [125I]FSH binding to membranes of CHO cells stably transfected with the human FSH receptor
# Method: FSH Receptor Radioligand Membrane Binding Standard Pharmacological Test Procedure
# Membrane Source: Chinese hamster ovarian cells stably transfected with the human FSH receptor were cultured (Ultra CHO medium containing 1% fetal bovine serum and 200 μg/mL G418) in and harvested. Cells were collected by centrifugation and resulting cell pellets were frozen and stored at −70° C.
# Membrane Receptor Preparation: Frozen cell pellets were weighed and resuspended in binding buffer to a final concentration of 30 mg wet weight/mL. Cell suspension for each pellet was homogenized using a Tempest homogenizer (setting=1; 5 strokes; VirTis, Gardiner, N.Y.). Cell homogenates were pooled and 35 mL aliquots were transferred to 50-mL polypropylene copolymer centrifuge tubes (Nalgene cat. #3110-0500). Tubes were spun at 12,000 rpm (SS34 rotor) for 12 min at 4° C. Resulting supernatant fractions were discarded and pellets were stored at −70° C. until use. On the day of the procedure, 35 mL binding buffer was added to each tube (35 mL membrane suspension was sufficient for three 96-well plates). The membrane pellet was dispersed by trituration using a pipet. The resulting suspension wass homogenized using a Tempest homogenizer (3 strokes at setting=1).
# Receptor Binding Test procedure: Membrane homogenate (100 μl) was added to each well of a 96-well microtiter plate (Falcon # 3077). All reactions were tested in triplicate. Test compound solutions (50 μl) were added to the designated wells. Total bound counts were determined by adding 50 μl binding buffer containing 4% DMSO to the designated wells. […] Plates were pre-incubated for 15 min at room temperature on shaking platform (setting=3). After preincubation [^125I]FSH (50 μl) was added to each well and plates were incubated for 2 h at room temperature on shaking platform (setting=3). The reaction was terminated by transfer of the membrane preparation to glass fiber filters (Blue Mat #11740; 102×256 mm; Skatron Instruments, Sterling, Va.) that had been pretreated with 1% BSA in wash buffer for at least 30 min, but not longer than 1 h using a 96-well microtiter vacuum harvester (Skatron Instruments). The membrane preparation was washed with 5 cycles of ice-cold wash buffer (200 μl/well/cycle) followed by a pulse wash of 3 cycles (100 μl/well/cycle). The total wash volume per well was 1.3 mL. The filters were dried by a 10 sec aspiration. Disks corresponding to each well of the microtiter plate were punched out of the filter mat into 12×75 mm polypropylene tubes. The radioactivity present on each of the disks was measured using a gamma counter.
# An FSH dose response curve (0.001, 0.01, 0.1, 1, 10, and 100 nM) was generated for each binding procedure to monitor procedure to procedrue variability.
# FSH Receptor Radioligand Membrane Binding Procedure Buffers and Reagents
# Binding buffer is prepared in 11 volumes containing Trizma-HCl, MgCl2, CaCl2 and sodium azide, the pH was adjusted to 7.2 with NaOH, and stored at 4° C. until use. BSA was weighed out on the day of the procedure and added to the amount of buffer required for the procedure (usually 150 mL). The protease inhibitors were prepared as 1 mg/mL stocks (aprotinin, leupeptin, and phosphoramidon were prepared in binding buffer without BSA and protease inhibitors; pepstatin and PMSF were prepared in methanol), stored in 1 mL aliquots at −70° C., and added to the binding buffer on the day of the procedure.
# Wash buffer was prepared containing Trizma-HCl, MgCl2 and EDTA, the pH was adjusted to 7.2 with NaOH, and stored at 4° C.
# Filter Soak Buffer (pH 7.2)
# BSA was weighed out on the day of the procedure and added to 300 mL of wash buffer. The filter soak buffer was used for two procedures before being discarded.
# A portion of the stock solution was diluted in binding buffer to a concentration of 200 pM.
# FSH Solution for Determining Non-specific Binding: Purified human FSH was prepared as a 100 μM solution in binding buffer without protease inhibitors. […]
row,Compound,IC50 [µM]
1,"COCCNc1ccc(C(=O)Nc2ccc(/C=C/c3ccc(NC(=O)c4ccc(NCCOC)c(S(=O)(=O)N5CCOCC5)c4)cc3S(=O)(=O)O)c(S(=O)(=O)O)c2)cc1S(=O)(=O)N1CCOCC1 [Example 30l, 2,2′-[(E)-1,2-Ethenediyl]bis[5-[[4-[(2-methoxyethyl)amino]-3-(4-morpholinylsulfonyl)benzoyl]amino]benzenesulfonic Acid]]",3.9
2,"O=C(Nc1ccc(/C=C/c2ccc(NC(=O)c3ccc(OCc4ccco4)c(S(=O)(=O)N4CCOCC4)c3)cc2S(=O)(=O)O)c(S(=O)(=O)O)c1)c1ccc(OCc2ccco2)c(S(=O)(=O)N2CCOCC2)c1 [Example 30u, 2,2′-[(E)-1,2-Ethenediyl]bis[5-[[4-(2-furanylmethoxy)-3-(4-morpholinylsulfony)benzoyl]amino]benzenesulfonic Acid]]",10
3,"COC(=O)CS(=O)(=O)c1ccc(C(=O)Nc2ccc(C=Cc3ccc(NC(=O)c4ccc(S(=O)(=O)CC(=O)OC)cc4)cc3S(=O)(=O)O)c(S(=O)(=O)O)c2)cc1 [Example 32c, [4-(4-{2-[4-(4-Methoxycarbonylmethanesulfonyl-benzoylamino)-2-sulfo-phenyl]-vinyl}-3-sulfo-phenylcarbomoyl)-benzenesulfonyl]-acetic Acid, Methyl Ester]",6.9
4,"COC(=O)CS(=O)(=O)c1cccc(C(=O)Nc2ccc(C=Cc3ccc(NC(=O)c4cccc(S(=O)(=O)CC(=O)OC)c4)cc3S(=O)(=O)O)c(S(=O)(=O)O)c2)c1 [Example 32d, [3-(4-{2-[4-(3-Methoxycarbonylmethanesulfonyl-benzoylamino)-2-sulfo-phenyl]-vinyl}-3-sulfo-phenylcarbomoyl)-benzenesulfonyl]-acetic Acid, Methyl Ester]",12.5
5,"CS(=O)(=O)Cc1ccc(C(=O)Nc2ccc(/C=C/c3ccc(NC(=O)c4ccc(CS(C)(=O)=O)cc4)cc3S(=O)(=O)O)c(S(=O)(=O)O)c2)cc1 [Example 32g, 2,2′-[(E)-1,2-Ethenediyl]bis[5-[[4-[(methylsulfonyl)methyl]benzoyl]amino]benzenesulfonic Acid]]",5.3
6,"O=C(Nc1ccc(/C=C/c2ccc(NC(=O)c3ccc(N4CCOCC4)c(S(=O)(=O)N4CCOCC4)c3)cc2S(=O)(=O)O)c(S(=O)(=O)O)c1)c1ccc(N2CCOCC2)c(S(=O)(=O)N2CCOCC2)c1 [Example 32k, 2,2′-[(E)-1,2-Ethenediyl]bis[5-[[4-(4-morpholinyl)-3-(4-morholinylsulfonyl)benzoyl]amino]benzenesulfonic Acid]]",7
7,COCCSc1ccc(C(=O)Nc2ccc(/C=C/c3ccc(NC(=O)c4ccc(SCCOC)c(S(=O)(=O)N5CCOCC5)c4)cc3S(=O)(=O)O)c(S(=O)(=O)O)c2)cc1S(=O)(=O)N1CCOCC1 [Example 32l],4.1
8,"COCCN(CCOC)c1ccc(C(=O)Nc2ccc(/C=C/c3ccc(NC(=O)c4ccc(N(CCOC)CCOC)c(S(=O)(=O)N5CCOCC5)c4)cc3S(=O)(=O)O)c(S(=O)(=O)O)c2)cc1S(=O)(=O)N1CCOCC1 [Example 32m, 2,2′-[(E)-1,2-Ethenediyl]bis[5-[[4-[bis(2-methoxyethyl)amino]-3-(4-morpholinylsulfonyl)benzoyl]amino]benzenesulfonic Acid]]",4.9
9,"CN(C)c1ccc(C(=O)Nc2ccc(/C=C/c3ccc(NC(=O)c4ccc(N(C)C)c(S(=O)(=O)N5CCOCC5)c4)cc3S(=O)(=O)O)c(S(=O)(=O)O)c2)cc1S(=O)(=O)N1CCOCC1 [Example 32n, 2,2′-[(E)-1,2-Ethenediyl]bis[5-[[4-(dimethylamino)-3-(4-morpholinylsulfonyl)benzoyl]amino]benzenesulfonic Acid]]",4.8
10,"COC(=O)CSc1ccc(C(=O)Nc2ccc(/C=C/c3ccc(NC(=O)c4ccc(SCC(=O)OC)c(S(=O)(=O)N5CCOCC5)c4)cc3S(=O)(=O)O)c(S(=O)(=O)O)c2)cc1S(=O)(=O)N1CCOCC1 [Example 32p, [4-[4-(2-{4-[4-Methoxycarbonylmethanesulfanyl-3-(morpholine-4-sulfonyl)-benzoylamino]-2-sulfo-phenyl}-(E)-vinyl)-3-sulfo-phenylcarbamoyl]-2-(morpholine-4-sulfonyl)-phenylsulfanyl]-acetic Acid, Methyl Ester]",15
11,"O=C(Nc1ccc(CCc2ccc(NC(=O)c3ccc(CC4CCCO4)c(S(=O)(=O)N4CCOCC4)c3)cc2S(=O)(=O)O)c(S(=O)(=O)O)c1)c1ccc(CC2CCCO2)c(S(=O)(=O)N2CCOCC2)c1 (stereo not shown) [Example 32q, 2,2′-(1,2-Ethanediyl)bis[5-[[4-(tetrahydro-2-furanmethyl)-3-(4-morpholinylsulfonyl)benzoyl]amino]benzenesulfonic Acid]]",2.4
12,"O=C(Nc1ccc(/C=C/c2ccc(NC(=O)c3cccc(S(=O)(=O)N4CCOCC4)c3)cc2S(=O)(=O)O)c(S(=O)(=O)O)c1)c1cccc(S(=O)(=O)N2CCOCC2)c1 [Example 33a, 2,2′-[(E)-1,2-Ethenediyl]bis[5-[[3-(4-morpholinylsulfonyl)benzoyl]amino]benzenesulfonic Acid]]",6.9
13,"O=C(Nc1ccc(/C=C/c2ccc(NC(=O)c3cccc(CN4CCOCC4)c3)cc2S(=O)(=O)O)c(S(=O)(=O)O)c1)c1cccc(CN2CCOCC2)c1 [Example 33b, 2,2′-[(E)-1,2-Ethenediyl]bis[5-[[3-(4-morpholinylmethyl)benzoyl]amino]benzenesulfonic Acid]]",4.5
14,"COc1ccc(C(=O)Nc2ccc(-c3ccc(NC(=O)c4ccc(OC)c(S(=O)(=O)N5CCOCC5)c4)cc3S(=O)(=O)O)c(S(=O)(=O)O)c2)cc1S(=O)(=O)N1CCOCC1 [Example 33g, 4,4′-Bis[4-methoxy-3-(morpholine-4-sulfonyl)benzoylamino]biphenyl-2,2′-(bis)sulfonic Acid]",20
15,"CS(=O)(=O)c1ccc(C(=O)Nc2ccc(/C=C/c3ccc(NC(=O)c4ccc(S(C)(=O)=O)c(N)c4)cc3S(=O)(=O)O)c(S(=O)(=O)O)c2)cc1N [Example 35, 2,2′-[(E)-1,2-Ethenediyl]bis[5-[[3-amino-4-(methylsulfonyl)benzoyl]amino]benzenesulfonic Acid]]",4.1
16,"O=C(O)CS(=O)(=O)c1ccc(C(=O)Nc2ccc(C=Cc3ccc(NC(=O)c4ccc(S(=O)(=O)CC(=O)O)cc4)cc3S(=O)(=O)O)c(S(=O)(=O)O)c2)cc1 [Example 36a, [4-(4-{2-[4-(4-Carboxymethanesulfonyl-benzoylamino)-2-sulfo-phenyl]-vinyl}-3-sulfo-phenylcarbamoyl)-benzenesulfonyl]-acetic Acid]",16
